# Experimental data as given in patent US4442218A, “Method of measuring degree of partitioning” (Corning Glass Works, priority 1981, dated 1984).
# Where two headings read alike, the source gives them in different places.
# Columns and labels:
# [1] = molecular target: thyroxine antibodies immobilized within the pores of stainless steel disc-shaped monoliths; test: Scatchard plot evaluation of binding constant, stainless steel disc-shaped monoliths; set-up: species or system rabbit; conditions: total liquid volume 0.5 ml; disc-shaped monolith, 0.5 mg protein per monolith; read-out: binding constant K (Scatchard plot)
# Protocol: The procedure of Example 1 was repeated, except that the cylindrical monoliths were replaced with 316 stainless steel discs 8 mm in diameter and 1.6 mm in thickness and the amount of protein per monolith was increased to 0.5 mg. Mean pore diameters were about 40μ and the total surface area of each disc was about 60 cm^2. In a random sampling of 10 discs, the average weight per disc was 0.330 g with a coefficient of variation of 0.3 percent. The discs were obtained as Stock No. S-2298 from Sintered Specialties, Janesville, Wisc. The Scatchard plot data were obtained using a total liquid volume of 0.5 ml per tube and serial dilutions of I^125 -labeled thyroxine from about 500,000 cpm to about 25,000 cpm.
# [2] = molecular target: thyroxine antibodies immobilized within the pores of stainless steel cylindrical monoliths; test: Scatchard plot evaluation of binding constant, stainless steel cylindrical monoliths; set-up: species or system rabbit; conditions: ambient temperature, overnight, shaking, cylindrical monolith, read-out: binding constant K (slope of Scatchard plot) (converted)
# Protocol: The treated monoliths were combined with 3.0 ml of a stock solution (prepared as described below) of an immunoglobulin-enriched fraction of an antithyroxine antiserum per 100 g of monoliths dissolved in sufficient 0.1 M phosphate buffer solution (PBS) at pH 7.0 to insure complete submersion of the monoliths (the 3.0 ml of stock solution was equivalent to 0.3 mg of protein per monolith). A water aspirator vacuum was applied to the resulting mixture for a time sufficient to insure complete penetration of the liquid phase into the pores of the monoliths. The mixture then was maintained at 4° on a reciprocating shake table (Eberbach Corporation, Ann Arbor, Mich.) for 48 hours. […] If the bound and free antigen can be separated and the quantity bound measured, then the value of K can be determined by constructing a Scatchard plot; see, e.g., E. D. Day, "Advanced Immunochemistry", Williams & Wilkens Co., Baltimore, Md., 1972, pp. 118ff. Such a procedure is particularly suited to solid-phase immunoassay systems since the bound antigen is readily separated from the free or unbound antigen. The value of K for the monolith-thyroxine antibody complex was determined as follows. […] (3) Each tube was counted for one minute to obtain total counts. […]
smiles,measurement,setting,value
N[C@@H](Cc1cc(I)c(Oc2cc(I)c(O)c(I)c2)c(I)c1)C(=O)O [thyroxine],Kd,[1],1 nM
same,Kd,[2]; total reaction volume 0.5 ml,0.175 nM
same,Kd,[2]; total reaction volume 1.0 ml,0.167 nM
